Measurements taken from doi:10.1101/2022.12.26.521971v1 (biorxiv, 2022).

Molecular target: rNTSR1 (wild-type rat Neurotensin Receptor 1) (Rattus norvegicus, UniProt P20789)
Test: cell-based
Design: species or system HEK293T

rNTSR1 (wild-type rat Neurotensin Receptor 1), sequence (P20789 whole entry): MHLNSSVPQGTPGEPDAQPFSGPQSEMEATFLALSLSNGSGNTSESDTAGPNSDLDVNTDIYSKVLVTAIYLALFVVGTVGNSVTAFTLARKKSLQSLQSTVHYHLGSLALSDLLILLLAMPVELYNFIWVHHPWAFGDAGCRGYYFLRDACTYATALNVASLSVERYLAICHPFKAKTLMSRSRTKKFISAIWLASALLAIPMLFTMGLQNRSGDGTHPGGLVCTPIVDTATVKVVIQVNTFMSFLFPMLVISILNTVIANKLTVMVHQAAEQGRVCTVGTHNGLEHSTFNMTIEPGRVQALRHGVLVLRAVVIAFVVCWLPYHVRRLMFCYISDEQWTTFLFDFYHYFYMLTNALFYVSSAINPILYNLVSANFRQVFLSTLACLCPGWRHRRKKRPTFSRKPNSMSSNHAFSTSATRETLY

- Kb: 776 nM
SMILES: COc1cc2nc(C3CC3)nc(N3CCN(c4ccccc4OC)CC3)c2cc1OC [ML314]
